Assay results as given in patent US8604023B2, “1,4-benzodiazepinone compounds and their use in treating cancer” (The Regents of the University of Michigan, priority 2009, dated 2013).

System: Ramos cells
Assay: cytotoxicity in Ramos cells
Type: cell-based
Details: Homo sapiens
Experimental: The compounds listed in Table 5 were tested for cytotoxicity in Ramos cells. The assay was conducted as described in K. M. Johnson et al. Chemistry & Biology 2005, 12, 485-496.

Structure (SMILES) | EC50 [µM]
CN1C(=O)C(Cc2ccc3ccccc3c2)N=C(N2CCC(O)CC2)c2cc(Cl)ccc21 (stereo not drawn) [Compound V-1] | ≥ 25
CN1C(=O)C(Cc2ccc3ccccc3c2)N=C(c2ccc(N)nc2)c2cc(Cl)ccc21 (stereo not drawn) [Compound V-2] | 5 to 25
CN1C(=O)C(Cc2ccc3ccccc3c2)N=C(c2cnc(N)cn2)c2cc(Cl)ccc21 (stereo not drawn) [Compound V-3] | ≥ 25
Nc1ccc(C2=NC(Cc3ccc4ccccc4c3)C(=O)Nc3ccc(Cl)cc32)cn1 (stereo not drawn) [Compound V-4] | 5 to 25
CN1C(=O)C(Cc2ccc3ccccc3c2)N=C(N2CCC3(CC2)OCCO3)c2cc(Cl)ccc21 (stereo not drawn) [Compound V-5] | ≤ 5
CN1C(=O)C(Cc2ccc3ccccc3c2)N=C(N2CCC(N)CC2)c2cc(Cl)ccc21 (stereo not drawn) [Compound V-6] | 5 to 25
O=C1CCN(C2=NC(Cc3ccc4ccccc4c3)C(=O)Nc3ccc(Cl)cc32)CC1 (stereo not drawn) [Compound V-7] | 5 to 25
COc1ccc(C2(O)CCN(C3=NC(Cc4ccc5ccccc5c4)C(=O)Nc4ccc(Cl)cc43)CC2)cc1 (stereo not drawn) [Compound V-8] | ≤ 5
CN1C(=O)C(Cc2ccc3ccccc3c2)N=C(N2CCC(NC(=O)OC(C)(C)C)CC2)c2cc(Cl)ccc21 (stereo not drawn) [Compound V-9] | ≥ 25
CN1C(=O)C(Cc2ccc3ccccc3c2)N=C(N2CCC(NC(=O)CN)CC2)c2cc(Cl)ccc21 (stereo not drawn) [Compound V-10] | ≤ 5
CN1C(=O)C(Cc2ccc3ccccc3c2)N=C(c2ccc(N)cn2)c2cc(Cl)ccc21 (stereo not drawn) [Compound V-11] | ≤ 5
CC(=O)NC1CCN(C2=NC(Cc3ccc4ccccc4c3)C(=O)N(C)c3ccc(Cl)cc32)CC1 (stereo not drawn) [Compound V-12] | 5 to 25
CN1C(=O)C(Cc2ccc3ccccc3c2)N=C(N2CCC(NC(=O)c3ccccc3)CC2)c2cc(Cl)ccc21 (stereo not drawn) [Compound V-13] | ≥ 25
CC(=O)OCC(=O)Nc1ccc(C2=NC(Cc3ccc4ccccc4c3)C(=O)N(C)c3ccc(Cl)cc32)cn1 (stereo not drawn) [Compound V-14] | ≤ 5
CN1C(=O)C(Cc2ccc3ccccc3c2)N=C(c2ccc(NC(=O)CO)nc2)c2cc(Cl)ccc21 (stereo not drawn) [Compound V-15] | 5 to 25
CN1C(=O)C(Cc2ccc3ccccc3c2)N=C(c2csc(CO)n2)c2cc(Cl)ccc21 (stereo not drawn) [Compound V-16] | ≤ 5
CC(=O)Nc1ccc(C2=NC(Cc3ccccc3Cl)C(=O)Nc3ccc(Cl)cc32)cn1 (stereo not drawn) [Compound V-17] | 5 to 25
Nc1ccc(C2=NC(Cc3ccccc3Cl)C(=O)Nc3ccc(Cl)cc32)cn1 (stereo not drawn) [Compound V-18] | 5 to 25
O=C1Nc2ccc(Cl)cc2C(c2ccncc2)=NC1Cc1ccccc1Cl (stereo not drawn) [Compound V-19] | 5 to 25
Nc1ncc(C2=NC(Cc3ccccc3Cl)C(=O)Nc3ccc(Cl)cc32)cn1 (stereo not drawn) [Compound V-20] | 5 to 25

Structure (SMILES) | EC50 [µM]
CCc1ccc(CC2N=C(c3cnc(N)nc3)c3cc(Cl)ccc3NC2=O)cc1CC (stereo not drawn) [Compound V-21] | 5 to 25
Nc1cncc(C2=NC(Cc3ccccc3Cl)C(=O)Nc3ccc(Cl)cc32)c1 (stereo not drawn) [Compound V-22] | ≥ 25
O=C1Nc2ccc(Cl)cc2C(c2cnc3[nH]c(=O)[nH]c3c2)=NC1Cc1ccccc1Cl (stereo not drawn) [Compound V-24] | ≤ 5
O=C1Nc2ccc(Cl)cc2C(c2ccnc(N3CCNCC3)c2)=NC1Cc1ccccc1Cl (stereo not drawn) [Compound V-25] | 5 to 25
CN1CCN(c2ccc(C3=NC(Cc4ccccc4Cl)C(=O)Nc4ccc(Cl)cc43)cn2)CC1 (stereo not drawn) [Compound V-26] | ≤ 5
O=C1Nc2ccc(Cl)cc2C(c2ccc(N3CCC(O)CC3)nc2)=NC1Cc1ccccc1Cl (stereo not drawn) [Compound V-27] | ≤ 5
O=C1Nc2ccc(Cl)cc2C(c2ccc(N3CCOCC3)nc2)=NC1Cc1ccccc1Cl (stereo not drawn) [Compound V-28] | ≤ 5
O=C1Nc2ccc(Cl)cc2C(c2ccc(N3CCC(CO)CC3)nc2)=NC1Cc1ccccc1Cl (stereo not drawn) [Compound V-29] | ≤ 5
CC(=O)N1CCN(c2ccc(C3=NC(Cc4ccccc4Cl)C(=O)Nc4ccc(Cl)cc43)cn2)CC1 (stereo not drawn) [Compound V-30] | ≤ 5
O=C1Nc2ccc(Cl)cc2C(c2ccc(N3CCCC3)nc2)=NC1Cc1ccccc1Cl (stereo not drawn) [Compound V-31] | ≤ 5
O=C1Nc2ccc(Cl)cc2C(c2ccc(N3CC[C@@H](O)C3)nc2)=NC1Cc1ccccc1Cl (stereo partly drawn) [Compound V-32] | 5 to 25
COCCNc1ccc(C2=NC(Cc3ccccc3Cl)C(=O)Nc3ccc(Cl)cc32)cn1 (stereo not drawn) [Compound V-33] | 5 to 25
COCCNc1ccc(C2=N[C@@H](Cc3ccccc3Cl)C(=O)Nc3ccc(Cl)cc32)cn1 [Compound V-34] | 5 to 25
O=C1Nc2ccc(Cl)cc2C(c2cnc3[nH]c(=O)[nH]c3c2)=NC1CCc1ccccc1Cl (stereo not drawn) [Compound V-35] | 5 to 25
Nc1ccc(C2=NC(Cc3ccccc3Cl)C(=O)N(C3CC3)c3ccc(Cl)cc32)cn1 (stereo not drawn) [Compound V-36] | 5 to 25
O=C1Nc2ccc(Cl)cc2C(c2cn[nH]c2)=NC1Cc1ccccc1Cl (stereo not drawn) [Compound V-37] | 5 to 25
O=C1Nc2ccc(Cl)cc2C(c2cn[nH]c2)=NC1Cc1ccc2ccccc2c1 (stereo not drawn) [Compound V-39] | ≤ 5
Cc1n[nH]cc1C1=NC(Cc2ccccc2Cl)C(=O)Nc2ccc(Cl)cc21 (stereo not drawn) [Compound V-40] | 5 to 25
Cc1n[nH]c(C)c1C1=NC(Cc2ccccc2Cl)C(=O)Nc2ccc(Cl)cc21 (stereo not drawn) [Compound V-41] | 5 to 25
